In data set [1] the target is T1, BmrA (Bacillus subtilis, UniProt O06967).
T1 construct: His tag; made in house; host or cells: E. coli C41(DE3)
Briefly: Extraction of BmrA from membranes (SDS-PAGE of supernatant). The following applies: detergent 10 g/l unless indicated otherwise; 2 h at 4° C. The arrangement: species or system bacterial; overexpressed in E. coli C41DE3. On the procedure: (§1) FIG. 6 depicts the extraction of the membrane proteins BmrA (panels A and C) and AcrB (panels B and D) using commercial detergents and the molecules of the invention (panels A and B, from left to right): SDS, DDM, FC12, TX100, compounds of the invention 1.4, 1.5, 2.3a, 2.3b, 2.3c, 2.3d, 2.3e, 2.3f, 2.3g, 2.3h, 2.3i, 3.7a, 3.7b; panel C: compounds of the invention 3.7c 0.8%, 3.7d 0.16%, 3.7e 0.8%, 3.7f 0.3%, 3.7g 0.4%, 3.7h 0.2%, 3.7i 0.07%, 3.7j 0.09%, 3.7k, 3.7l, 0.25%, 3.9a, 4.5a, 4.5b, 4.5c, 4.5d 0.34%, 4.6a, 4.6b, 4.6c, 4.6d, 5.3a, 5.3b, 5.3c 0.3%, 5.3d 0.3%; panel D: 3.7c, 3.7d, 3.7e, 3.7f, 3.7h, 3.7i 0.1%, 3.7j, 3.7k, 3.7l, 3.9a, 4.5a, 4.5b, 4.5c, 4.5d, 4.6a, 4.6b, 4.6c, 4.6d. The detergents are added at 10 g/l (1%), unless indicated otherwise. The equivalent of 20 μg of proteins of the extracted fraction after centrifugation at 100 000×g for 30 min is deposited on 10% SDS-PAGE, stained with Coomassie blue after migration. BmrA migrates in its monomeric form to the level of the 55 kDa band; AcrB migrates in its monomeric form to the level of the 100 kDa band. SDS=sodium dodecyl sulfate; DDM=β-D-dodecyl maltoside; FC12=foscholine-12; TX100=triton X-100.
(§2) The extraction capacity of the detergents of the series is tested on membranes in which BmrA or AcrB are strongly expressed. The extraction with the clips (molecules of the invention) is compared to that obtained with commercial detergents, used as reference.
(§3) Procedure. BmrA represents 25% of the proteins present in the overexpression system used (E. coli, C41DE3). These membranes are prepared as described previously (Matar-Merheb, R. et al. ([11])). The membranes containing AcrB (approximately 20% of the membrane proteins, same expression system as BmrA) were prepared as described previously (Seeger, M. A. et al. ([21])). The detergents are used at 10 g/l unless indicated otherwise, and the proteins diluted at 2 g/l in a 20 mM Tris-HCl buffer, pH 8.0, 100 mM NaCl, 15% glycerol, with protease inhibitors (Roche) added thereto at an amount of one tablet/100 ml. The mixture (T) is incubated for 2 h at 4° C. then centrifuged for 1 h at 4° C. at 100 000×g in order to separate the extracted fraction (supernatant, S) from that which is not extracted (pellet). The supernatants are deposited on 10% SDS-PAGE and stained with Coomassie blue after migration. The foscholine 12, DDM and LMNG originate from Anatrace, the SDS and Triton X100 originate from Sigma-Aldrich.

The nature of data set [2]: Critical micelle concentration (CMC) by DPH fluorescence. It counts as physicochemical. The following applies: 50 mM tris-HCl, pH 8.0. On the procedure:
FIG. 4 represents the fluorescence (%) of DPH (1,6-diphenyl-1,3,5-hexatriene) in the presence of increasing concentrations (0.0001 mM, 0.001 mM, 0.01 mM, 0.1 mM, 1 mM and 10 mM) of clips (compounds of the invention), exemplified with the compounds #3.7e (C13, points represented by squares) and 3.7f (C18, points represented by circles). The experiment is carried out in triplicates. In accordance with Chattopadhyay, A. & London, E ([22]), the CMC corresponds to the concentration at which the breakage in the slope is observed, here at 20 μM for 3.7f and 2 mM for 3.7e (black symbols).
Procedure. The molecules of the invention were prepared in a range of concentrations extending from 0.1 μM to 10 mM in 50 mM tris-HCl, pH 8.0 and neutralized at this pH. To 80 μl of each solution (triplicate), the same volume of 10 μM of 1,6-diphenyl-1,3,5-hexatriene (DPH, Sigma, D208000) is added, prepared at 100 μM in tetrahydrofuran then diluted 10-fold in H2O. The increase in the fluorescence of the DPH occurs when the latter find micelles of clips into which it can insert itself (Chattopadhyay, A. & London, E. Fluorimetric determination of critical micelle concentration avoiding interference from detergent charge. Anal Biochem 139, 408-412 (1984) ([22])). The fluorescence is read with a Xenius SAFAS fluorimeter by exciting at 358 nm and recording the fluorescence emission at 430 nm, with slits of 9 to 10 nm for the excitation and the emission and a gain of 100 to 150, depending on the cases.
Results. The CMC of the detergents is the concentration starting from which they associate with one another to form micelles, in which, in aqueous solution, the hydrophobic portions are grouped together at the center and the hydrophilic regions are exposed to the solvent. […] A typical result obtained with a compound 3.7 provided with a C13 (3.7e) or C18 ([…]) aliphatic chain is illustrated in FIG. 4.

Data set [3] addresses T2, AcrB (Escherichia coli, UniProt P31224).
T2 construct: made in house; host or cells: E. coli C41(DE3)
As to the kind of experiment: Extraction of AcrB from membranes (SDS-PAGE of supernatant). The arrangement: species or system bacterial; same expression system (E. coli C41DE3). The following applies: for selective extraction AcrB versus BmrA: comparison of extraction of AcrB and BmrA; for extraction of AcrB: detergent 10 g/l unless indicated otherwise, 2 h at 4° C. On the procedure:
as §1, §2, §3

Non-standard residues stand in square brackets, D forms with d. Residues, ends and D or L forms follow the SMILES beside them. ξ: configuration not given here. *: point of attachment. Myristoyl = CCCCCCCCCCCCCC(=O)*; Lauroyl = CCCCCCCCCCCC(=O)*; Decanoyl = CCCCCCCCCC(=O)*; ξE = NC(CCC(=O)O)C(=O)O; ξD = NC(CC(=O)O)C(=O)O

T1 sequence (O06967 whole entry): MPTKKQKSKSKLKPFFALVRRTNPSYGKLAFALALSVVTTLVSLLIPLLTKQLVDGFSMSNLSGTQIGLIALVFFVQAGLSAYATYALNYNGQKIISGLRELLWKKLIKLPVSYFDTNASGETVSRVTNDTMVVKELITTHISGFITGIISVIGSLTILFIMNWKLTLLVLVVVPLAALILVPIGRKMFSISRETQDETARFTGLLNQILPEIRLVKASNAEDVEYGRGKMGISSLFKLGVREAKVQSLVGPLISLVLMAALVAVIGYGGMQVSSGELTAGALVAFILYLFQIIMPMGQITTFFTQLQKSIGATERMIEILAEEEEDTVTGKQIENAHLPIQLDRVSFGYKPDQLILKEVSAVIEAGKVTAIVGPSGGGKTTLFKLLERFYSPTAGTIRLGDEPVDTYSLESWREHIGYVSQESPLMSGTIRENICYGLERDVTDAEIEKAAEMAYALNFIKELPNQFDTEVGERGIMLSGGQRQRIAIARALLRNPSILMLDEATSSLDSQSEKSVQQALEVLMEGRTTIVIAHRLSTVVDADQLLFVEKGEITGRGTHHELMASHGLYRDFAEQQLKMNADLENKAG
T2 sequence (P31224 whole entry): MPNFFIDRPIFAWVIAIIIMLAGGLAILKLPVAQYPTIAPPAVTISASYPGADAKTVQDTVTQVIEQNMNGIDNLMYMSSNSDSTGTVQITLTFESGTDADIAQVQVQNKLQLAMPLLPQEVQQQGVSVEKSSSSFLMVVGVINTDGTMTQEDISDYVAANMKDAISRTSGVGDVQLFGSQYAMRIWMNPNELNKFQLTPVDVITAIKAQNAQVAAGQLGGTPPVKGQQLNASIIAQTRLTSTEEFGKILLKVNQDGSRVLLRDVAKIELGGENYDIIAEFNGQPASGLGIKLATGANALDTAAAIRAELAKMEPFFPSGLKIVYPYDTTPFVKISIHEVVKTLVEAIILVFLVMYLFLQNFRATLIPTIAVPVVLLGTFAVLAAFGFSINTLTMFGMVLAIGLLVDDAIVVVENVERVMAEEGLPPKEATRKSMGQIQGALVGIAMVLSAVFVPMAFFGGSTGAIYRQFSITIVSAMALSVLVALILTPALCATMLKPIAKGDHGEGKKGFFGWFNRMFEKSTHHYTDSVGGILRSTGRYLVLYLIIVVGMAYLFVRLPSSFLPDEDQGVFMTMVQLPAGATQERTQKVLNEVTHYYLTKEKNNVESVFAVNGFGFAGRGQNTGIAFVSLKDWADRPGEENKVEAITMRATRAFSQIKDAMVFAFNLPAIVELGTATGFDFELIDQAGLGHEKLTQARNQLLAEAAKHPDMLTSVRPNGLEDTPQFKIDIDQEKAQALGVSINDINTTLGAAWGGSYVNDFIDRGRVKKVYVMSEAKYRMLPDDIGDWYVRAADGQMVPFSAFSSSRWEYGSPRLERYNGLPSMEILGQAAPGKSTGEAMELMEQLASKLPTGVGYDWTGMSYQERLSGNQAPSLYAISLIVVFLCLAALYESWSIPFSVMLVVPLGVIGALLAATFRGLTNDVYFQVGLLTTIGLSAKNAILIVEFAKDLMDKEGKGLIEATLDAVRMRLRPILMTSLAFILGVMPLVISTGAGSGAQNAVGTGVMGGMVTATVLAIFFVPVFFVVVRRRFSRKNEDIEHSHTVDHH

For the compound `CCCNC(=O)[C@H](CO)NCC(=O)O` [Compound 1.4], the “extraction of BmrA” value in data set [1] was “extracting”.

Consider `CCCNC(=O)[C@H](CO)N(CC(=O)O)CC(=O)O` [Compound 1.5], for which, in data set [2], the “CMC” value is recorded as 2.5 mM. Besides, the “extraction of BmrA” value in data set [1] is “partially extracting”. Further, in data set [3], the “selective extraction AcrB versus BmrA” value was “more effectively extract AcrB” and the “extraction of AcrB” value is “extracting”.

On to `CCCCCCCCCCCCCC(=O)N[C@@H](CO)C(=O)N[C@H](CCC(=O)O)C(=O)O` [Compound 2.3a] (HELM PEPTIDE1{[CCCCCCCCCCCCCC(=O)[*:2]].S.[dE]}$$$$V2.0), for which, in data set [2], the “CMC” value amounted to 2 mM. In addition, in data set [1], the “extraction of BmrA” value is “extracting”. Besides, the “extraction of AcrB” value in data set [3] is “extracting”.

In the case of `CCCCCCCC(=O)N[C@@H](CO)C(=O)N[C@H](CCC(=O)O)C(=O)O` [Compound 2.3b] (HELM PEPTIDE1{[CCCCCCCC(=O)[*:2]].S.[dE]}$$$$V2.0), the “CMC” value in data set [2] stood at 5 mM. Also, the “extraction of BmrA” value in data set [1] is “non-extracting”. Moreover, in data set [3], the “extraction of AcrB” value is “extracting”.

As to `CCCCCCCCC(=O)N[C@@H](CO)C(=O)N[C@H](CCC(=O)O)C(=O)O` [Compound 2.3c] (HELM PEPTIDE1{[CCCCCCCCC(=O)[*:2]].S.[dE]}$$$$V2.0), in data set [2], the “CMC” value is listed as 3.5 mM. For the same compound, the “extraction of BmrA” value in data set [1] is “non-extracting”. Also, in data set [3], the “extraction of AcrB” value was “extracting”.

As for `CCCCCCCCCC(=O)N[C@@H](CO)C(=O)N[C@H](CCC(=O)O)C(=O)O` [Compound 2.3d] (HELM PEPTIDE1{[CCCCCCCCCC(=O)[*:2]].S.[dE]}$$$$V2.0), the “CMC” value in data set [2] was found to be 2 mM. The “extraction of BmrA” value in data set [1] is “extracting”. The “extraction of AcrB” value in data set [3] is “extracting”.

Take `CCCCCCCCCCCC(=O)N[C@@H](CO)C(=O)N[C@H](CCC(=O)O)C(=O)O` [Compound 2.3e] (HELM PEPTIDE1{[CCCCCCCCCCCC(=O)[*:2]].S.[dE]}$$$$V2.0): the “CMC” value in data set [2] was found to be 1 mM. For the same compound, the “extraction of AcrB” value in data set [3] is reported as “extracting”.

As to `CCCCCCCCCCCCC(=O)N[C@@H](CO)C(=O)N[C@H](CCC(=O)O)C(=O)O` [Compound 2.3f], in data set [2], the “CMC” value was determined as 0.8 mM. The “extraction of BmrA” value in data set [1] is “extracting”. In data set [3], the “extraction of AcrB” value is “extracting”.

As to `CCCCCCCCCCCCCC(=O)N[C@@H](CO)C(=O)N[C@H](CCC(=O)O)C(=O)O` [Compound 2.3g] (HELM PEPTIDE1{[CCCCCCCCCCCCCC(=O)[*:2]].S.[dE]}$$$$V2.0), the “extraction of BmrA” value in data set [1] is recorded as “extracting”. Further, the “extraction of AcrB” value in data set [3] was “extracting”.

`CCCCCCCCCCCCCCCC(=O)N[C@@H](CO)C(=O)N[C@H](CCC(=O)O)C(=O)O` [Compound 2.3h] (HELM PEPTIDE1{[CCCCCCCCCCCCCCCC(=O)[*:2]].S.[dE]}$$$$V2.0): the “CMC” value in data set [2] came out at 0.5 mM. Also, the “extraction of BmrA” value in data set [1] is “extracting”. In addition, the “extraction of AcrB” value in data set [3] was “extracting”.

In the case of `[2H]C([2H])([2H])C([2H])([2H])C([2H])([2H])C([2H])([2H])C([2H])([2H])C([2H])([2H])C([2H])([2H])C([2H])([2H])C([2H])([2H])C([2H])([2H])C([2H])([2H])C(=O)N[C@@H](CO)C(=O)N[C@H](CCC(=O)O)C(=O)O` [Compound 2.3i], in data set [1], the “extraction of BmrA” value is reported as “extracting”. Besides, the “extraction of AcrB” value in data set [3] was “extracting”.

As for `CCCCCCCCCC(=O)N[C@@H](COCc1cn(CCO[C@@H]2OC(CO)[C@@H](O)C(O)C2O)nn1)C(=O)N[C@H](CCC(=O)O)C(=O)O` (stereo partly drawn) [Compound 3.7a], the “CMC” value in data set [2] amounted to 2 mM. In addition, the “extraction of BmrA” value in data set [1] is recorded as “non-extracting”. Besides, the “extraction of AcrB” value in data set [3] is “do not extract”.

Take `CCCCCC(CCCCC)C(=O)N[C@@H](COCc1cn(CCO[C@@H]2OC(CO)[C@@H](O)C(O)C2O)nn1)C(=O)N[C@H](CCC(=O)O)C(=O)O` (stereo partly drawn) [Compound 3.7i]: in data set [2], the “CMC” value was found to be 1 mM. Moreover, the “extraction of BmrA” value in data set [1] is recorded as “non-extracting”. The “extraction of AcrB” value in data set [3] is “do not extract”.

As for `O=C(O)CC[C@@H](NC(=O)[C@H](COCc1cn(CCO[C@@H]2OC(CO)[C@@H](O)C(O)C2O)nn1)NC(=O)CCCCC1CCCCC1)C(=O)O` (stereo partly drawn) [Compound 3.7k], in data set [2], the “CMC” value is 1 mM. In addition, the “extraction of BmrA” value in data set [1] is given as “non-extracting”. The “extraction of AcrB” value in data set [3] is recorded as “do not extract”.

Take `CCCCCCCCCC(=O)NC(CC(=O)O)C(=O)NC(CCC(=O)O)C(=O)O` (stereo not drawn) [Compound 4.5a] (Decanoyl-Asp-Glu-OH; configuration not given here): the “CMC” value in data set [2] came to 3 mM. In addition, the “extraction of BmrA” value in data set [1] is “non-extracting”. The “extraction of AcrB” value in data set [3] is recorded as “partially extract”.

`CCCCCCCCCCCC(=O)NC(CC(=O)O)C(=O)NC(CCC(=O)O)C(=O)O` (stereo not drawn) [Compound 4.5b] (Lauroyl-Asp-Glu-OH; configuration not given here): in data set [2], the “CMC” value is reported as 2 mM. Also, the “extraction of BmrA” value in data set [1] is recorded as “partially extracting”. For the same compound, in data set [3], the “extraction of AcrB” value is given as “extracting”.

For `CCCCCCCCCCCC(=O)NC(CC(=O)NC(CCC(=O)O)C(=O)O)C(=O)NC(CCC(=O)O)C(=O)O` (stereo not drawn) [Compound 4.6b] (Lauroyl-Asp(Glu)-Glu-OH; configuration not given here), the “CMC” value in data set [2] is listed as 1 mM. In addition, the “selective extraction AcrB versus BmrA” value in data set [3] is “not extract, or only very slightly extract, AcrB, unlike BmrA”.

With `CCCCCCCCCCCCCC(=O)NC(CC(=O)N[C@@H](CCC(=O)O)C(=O)O)C(=O)NC(CCC(=O)O)C(=O)O` (stereo partly drawn) [Compound 4.6c] (Myristoyl-[ξD](Glu)-[ξE]-OH), the “CMC” value in data set [2] was 1 mM. The “extraction of AcrB” value in data set [3] is reported as “extracting”.

`CCCCCCCCCCCCOP(=O)([O-])OCC[N+](C)(C)C` [FC12, foscholine-12, reference compound]: the “extraction of BmrA” value in data set [1] was “effectively extracted”. The “extraction of AcrB” value in data set [3] is “effectively extracted”.

On to `CCCCCCCCCCCCOS(=O)(=O)[O-].[Na+]` [SDS, sodium dodecyl sulfate, reference compound], for which, in data set [1], the “extraction of BmrA” value was “effectively extracted”. In data set [3], the “extraction of AcrB” value is “effectively extracted”.

On to “triton X-100 [TX100, reference compound]”, for which, in data set [1], the “extraction of BmrA” value is recorded as “solubilize”. Further, in data set [3], the “extraction of AcrB” value is on record as “solubilize”.

Source of the values: patent US11440932B2, “Surfactant compounds-clips for extraction and stabilization in solution of membrane proteins” (CENTRE NATIONAL DE LA RECHERCHE SCIENTIFIQUE, priority 2017, dated 2022).
